This is an account of results in ChEMBL document CHEMBL1287733, “Implication of the disulfide bridge in trypsin inhibitor SFTI-1 in its interaction with serine proteinases” (Bioorg Med Chem, 2010).

Each structure is given as a SMILES string. Activity calls are given as the source filed them. No cut-off for these calls is given here. Starred links: 1 amine or outer side, 2 acyl side, 3 side chain; linkers in the order of their positions; H or OH if unused. Non-standard residues stand in square brackets, D forms with d. Residues, ends and D or L forms follow the SMILES beside them. N(2-mercaptoethyl)Gly = O=C(CN(CCS[*:3])[*:1])[*:2]; hCys = N[C@@H](CCS)C(=O)O; Nphe = O=C(O)CNCc1ccccc1; Nlys = NCCCCNCC(=O)O

One experiment is filed under the species Bos taurus. The experiment in a line: Inhibition of bovine trypsin.
`CC[C@H](C)[C@@H]1NC(=O)[C@@H]2CCCN2C(=O)[C@@H]2CCCN2C(=O)[C@H]([C@@H](C)CC)NC(=O)[C@H](CO)NC(=O)[C@H](CCCCN)NC(=O)[C@H]([C@@H](C)O)NC(=O)[C@H](CS)NC(=O)[C@H](CCCNC(=N)N)NC(=O)CNC(=O)[C@H](CC(=O)O)NC(=O)[C@@H]2CCCN2C(=O)[C@H](Cc2ccccc2)NC(=O)[C@H](CS)NC1=O` came in with a Ka of 9.9 ×10⁹ /M.

`CC[C@H](C)[C@@H]1NC(=O)[C@@H]2CCCN2C(=O)[C@@H]2CCCN2C(=O)[C@H]([C@@H](C)CC)NC(=O)[C@H](CO)NC(=O)[C@H](CCCCN)NC(=O)[C@H]([C@@H](C)O)NC(=O)[C@@H]2CSSC[C@H](NC1=O)C(=O)N[C@@H](Cc1ccccc1)C(=O)N1CCC[C@H]1C(=O)N[C@@H](CC(=O)O)C(=O)NCC(=O)N[C@@H](CCCNC(=N)N)C(=O)N2` had a Ka of 1.1 ×10¹⁰ /M.

As for `CC[C@H](C)[C@@H]1NC(=O)[C@@H]2CCCN2C(=O)[C@@H]2CCCN2C(=O)[C@H]([C@@H](C)CC)NC(=O)[C@H](CO)NC(=O)CN(CCCCN)C(=O)[C@H]([C@@H](C)O)NC(=O)CN(CCS)C(=O)[C@H](CCCNC(=N)N)NC(=O)CNC(=O)[C@H](CC(=O)O)NC(=O)[C@@H]2CCCN2C(=O)[C@H](Cc2ccccc2)NC(=O)CN(CCS)C1=O` (cyclo(DGR[N(2-mercaptoethyl)Gly]T[Nlys]SIPPI[N(2-mercaptoethyl)Gly]FP)), the Ka entry was “inactive”.

For the compound `CC[C@H](C)[C@@H]1NC(=O)[C@@H]2CCCN2C(=O)[C@@H]2CCCN2C(=O)[C@H]([C@@H](C)CC)NC(=O)[C@H](CO)NC(=O)[C@H](CCCCN)NC(=O)[C@H]([C@@H](C)O)NC(=O)CN(CCS)C(=O)[C@H](CCCNC(=N)N)NC(=O)CNC(=O)[C@H](CC(=O)O)NC(=O)[C@@H]2CCCN2C(=O)[C@H](Cc2ccccc2)NC(=O)CN(CCS)C1=O` (cyclo(DGR[N(2-mercaptoethyl)Gly]TKSIPPI[N(2-mercaptoethyl)Gly]FP)), the Ka result is “inactive”.

For the next experiment, the species on record is Bos taurus. The experiment in a line: Inhibition of bovine chymotrypsin.
`CC[C@H](C)[C@@H]1NC(=O)[C@@H]2CCCN2C(=O)[C@@H]2CCCN2C(=O)[C@H]([C@@H](C)CC)NC(=O)[C@H](CO)NC(=O)[C@H](Cc2ccccc2)NC(=O)[C@H]([C@@H](C)O)NC(=O)CN(CCS)C(=O)[C@H](CCCNC(=N)N)NC(=O)CNC(=O)[C@H](CC(=O)O)NC(=O)[C@@H]2CCCN2C(=O)[C@H](Cc2ccccc2)NC(=O)[C@H](CS)NC1=O` (cyclo(CFPDGR[N(2-mercaptoethyl)Gly]TFSIPPI)): the Ka result is “inactive”.

In turn, `CC[C@H](C)[C@@H]1NC(=O)[C@@H]2CCCN2C(=O)[C@@H]2CCCN2C(=O)[C@H]([C@@H](C)CC)NC(=O)[C@H](CO)NC(=O)[C@H](CCCCN)NC(=O)[C@H]([C@@H](C)O)NC(=O)[C@H](CS)NC(=O)[C@H](CCCNC(=N)N)NC(=O)CNC(=O)[C@H](CC(=O)O)NC(=O)[C@@H]2CCCN2C(=O)[C@H](Cc2ccccc2)NC(=O)[C@H](CS)NC1=O` registered a Ka of 4.9 ×10⁶ /M.

The compound `CC[C@H](C)[C@@H]1NC(=O)[C@@H]2CCCN2C(=O)[C@@H]2CCCN2C(=O)[C@H]([C@@H](C)CC)NC(=O)[C@H](CO)NC(=O)[C@H](Cc2ccccc2)NC(=O)[C@H]([C@@H](C)O)NC(=O)[C@H](CCS)NC(=O)[C@H](CCCNC(=N)N)NC(=O)CNC(=O)[C@H](CC(=O)O)NC(=O)[C@@H]2CCCN2C(=O)[C@H](Cc2ccccc2)NC(=O)[C@H](CCS)NC1=O` (cyclo(DGR[hCys]TFSIPPI[hCys]FP)) displayed a Ka of 7.56 ×10⁹ /M.

On to `CC[C@H](C)[C@@H]1NC(=O)[C@@H]2CCCN2C(=O)[C@@H]2CCCN2C(=O)[C@H]([C@@H](C)CC)NC(=O)[C@H](CO)NC(=O)[C@H](Cc2ccccc2)NC(=O)[C@H]([C@@H](C)O)NC(=O)CN(CCS)C(=O)[C@H](CCCNC(=N)N)NC(=O)CNC(=O)[C@H](CC(=O)O)NC(=O)[C@@H]2CCCN2C(=O)[C@H](Cc2ccccc2)NC(=O)CN(CCS)C1=O` (cyclo(DGR[N(2-mercaptoethyl)Gly]TFSIPPI[N(2-mercaptoethyl)Gly]FP)), for which the Ka entry was “inactive”.

Turning to `CC[C@H](C)[C@@H]1NC(=O)[C@@H]2CCCN2C(=O)[C@@H]2CCCN2C(=O)[C@H]([C@@H](C)CC)NC(=O)[C@H](CO)NC(=O)CN(Cc2ccccc2)C(=O)[C@H]([C@@H](C)O)NC(=O)[C@@H](C(C)(C)S)NC(=O)[C@H](CCCNC(=N)N)NC(=O)CNC(=O)[C@H](CC(=O)O)NC(=O)[C@@H]2CCCN2C(=O)[C@H](Cc2ccccc2)NC(=O)[C@@H](C(C)(C)S)NC1=O`, the Ka turned out to be 3.11 ×10⁵ /M.

As for `CC[C@H](C)[C@@H]1NC(=O)[C@@H]2CCCN2C(=O)[C@@H]2CCCN2C(=O)[C@H]([C@@H](C)CC)NC(=O)[C@H](CO)NC(=O)[C@H](Cc2ccccc2)NC(=O)[C@H]([C@@H](C)O)NC(=O)[C@H](CS)NC(=O)[C@H](CCCNC(=N)N)NC(=O)CNC(=O)[C@H](CC(=O)O)NC(=O)[C@@H]2CCCN2C(=O)[C@H](Cc2ccccc2)NC(=O)CN(CCS)C1=O` (cyclo(CTFSIPPI[N(2-mercaptoethyl)Gly]FPDGR)), the Ka was 4.79 ×10⁸ /M.

`CC[C@H](C)[C@@H]1NC(=O)[C@@H]2CCCN2C(=O)[C@@H]2CCCN2C(=O)[C@H]([C@@H](C)CC)NC(=O)[C@H](CO)NC(=O)CN(Cc2ccccc2)C(=O)[C@H]([C@@H](C)O)NC(=O)[C@@H](C(C)(C)S)NC(=O)[C@H](CCCNC(=N)N)NC(=O)CNC(=O)[C@H](CC(=O)O)NC(=O)[C@@H]2CCCN2C(=O)[C@H](Cc2ccccc2)NC(=O)[C@H](CS)NC1=O` returned a Ka of 1.15 ×10⁵ /M.

`CC[C@H](C)[C@@H]1NC(=O)[C@@H]2CCCN2C(=O)[C@@H]2CCCN2C(=O)[C@H]([C@@H](C)CC)NC(=O)[C@H](CO)NC(=O)CN(Cc2ccccc2)C(=O)[C@H]([C@H](C)O)NC(=O)[C@H](CS)NC(=O)[C@H](CCCNC(=N)N)NC(=O)CNC(=O)[C@H](CC(=O)O)NC(=O)[C@@H]2CCCN2C(=O)[C@H](Cc2ccccc2)NC(=O)[C@H](CS)NC1=O` yielded a Ka of 3.9 ×10⁸ /M.

`CC[C@H](C)[C@@H]1NC(=O)[C@@H]2CCCN2C(=O)[C@@H]2CCCN2C(=O)[C@H]([C@@H](C)CC)NC(=O)[C@H](CO)NC(=O)CN(Cc2ccccc2)C(=O)[C@H]([C@@H](C)O)NC(=O)CN(CCS)C(=O)[C@H](CCCNC(=N)N)NC(=O)CNC(=O)[C@H](CC(=O)O)NC(=O)[C@@H]2CCCN2C(=O)[C@H](Cc2ccccc2)NC(=O)CN(CCS)C1=O` (cyclo(DGR[N(2-mercaptoethyl)Gly]T[Nphe]SIPPI[N(2-mercaptoethyl)Gly]FP)): the Ka result is “inactive”.

As for `CC[C@H](C)[C@@H]1NC(=O)[C@@H]2CCCN2C(=O)[C@@H]2CCCN2C(=O)[C@H]([C@@H](C)CC)NC(=O)[C@H](CO)NC(=O)[C@H](CCCCN)NC(=O)[C@H]([C@@H](C)O)NC(=O)[C@@H]2CSSC[C@H](NC1=O)C(=O)N[C@@H](Cc1ccccc1)C(=O)N1CCC[C@H]1C(=O)N[C@@H](CC(=O)O)C(=O)NCC(=O)N[C@@H](CCCNC(=N)N)C(=O)N2`, the Ka came to 5.2 ×10⁶ /M.
